Measurements taken from patent US9050341B2, “Methods of treating drug resistant and other tumors by administering 6,7-dialkoxy quinazoline derivatives” (NATCO PHARMA LIMITED, priority 2009, dated 2015).

Legend:
Assay in all cases: KinomeScan kinase profiling
Format in all cases: binding
PIK3CG = target: T1, PIK3CG (Homo sapiens, UniProt P48736)
T1 construct: purchased Ambit Biosciences Corp (KinomeScan); host or cells: E. coli host derived from BL21, infected with T7 phage
Source text: (§1) The kinases were ABL1(F317L), ABL1(H396P), ABL1(Q252H), ABL1(Y253F), ADCK3, ADCK4, ALK, ARK5, AXL, BLK, BRSK2, CDK7, CIT, CLK4, CSNK1D, CSNK1E, DAPK1, DAPK3, DCAMKL3, DMPK, EGFR, EGFR(E746-A750DEL), EGFR(G719C), EGFR(G719S), EGFR(L747-E749DEL, A750P), EGFR(L747-S752 DEL, P753S), EGFR(L747-T751DEL, Sin), EGFR(L858R), EGFR(L861Q), EGFR(S752-I759DEL), EPHA5, EPHA6, ERBB2, ERBB4, ERK3, ERK4, FGR, FLT3(D835H), FLT3(D835Y), FLT3(ITD), FLT3(N841 I), FRK, GAK, GCN2(KIN.DOM.2, S808G), HCK, IRAK3, JAK1(KIN.DOM.1), KIT, KIT(D816V), KIT(V559D), KIT(V559D,T670I), LCK, LOK, LTK, LYN, MAP3K3, MAP4K4, MAP4K5, MET, MINK, MKNK1, MKNK2, MST4, MYLK2, PDGFRB, PIM3, PKN2, PRKD1, PRKD2, PRKD3, PRKG1, RIPK2, RPS6KA4(KIN.DOM.2), SIK2, SLK, SNARK, SRC, STK36, TNIK, TNNI3K, TYK2(KIN.DOM.2).
(§2) Kinase assays: Assays were performed as described in Fabian et al. (2005) Nature Biotechnology, vol. 23, p. 329. Kinase-tagged T7 phage strains were grown in parallel in 24 or 96-well blocks in an E. coli host derived from the BL21 strain. E. coli were grown to log-phase and infected with T7 phage from a frozen stock (multiplicity of infection ˜0.1) and incubated with shaking at 32° C. until lysis (˜90 minutes). The lysates were centrifuged and filtered to remove cell debris. […] The liganded beads were blocked with excess biotin and washed with blocking buffer (SeaBlock (Pierce), 1% BSA, 0.05% Tween 20, 1 mM DTT) to remove unbound ligand and to reduce non-specific phage binding.
(§3) Test compounds were prepared as 40× stocks in DMSO and diluted into the aqueous environment. 2.5% DMSO was added to control assays lacking a test compound. All reactions were performed in polystyrene 96-well plates that had been pretreated with blocking buffer in a final volume of 0.04 ml. […] The phage titer in the eluates was measured by quantitative PCR.

EPHA6 = target: T2, EPHA6 (Homo sapiens, UniProt Q9UF33)
T2 construct: host or cells: E. coli host derived from BL21, T7 phage lysate
Source text: as §1, §2, §3

PRKCE = target: T3, PRKCE (Homo sapiens, UniProt Q02156)
T3 construct: purchased Ambit Biosciences Corp (KinomeScan); host or cells: E. coli host derived from BL21, infected with T7 phage
Source text: as §1, §2, §3

NEK2 = target: T4, NEK2 (Homo sapiens, UniProt P51955)
T4 construct: host or cells: T7 phage in E. coli host derived from BL21
Source text: as §1, §2, §3

BMPR2 = target: T5, BMPR2 (Homo sapiens, UniProt Q13873)
T5 construct: purchased Ambit Biosciences Corp (KinomeScan); host or cells: E. coli host derived from the BL21 strain, T7 phage
Source text: as §1, §2, §3

MAP3K4 = target: T6, MAP3K4 (Homo sapiens, UniProt Q9Y6R4)
T6 construct: host or cells: E. coli derived from BL21, infected with T7 phage
Source text: as §1, §2, §3

CDKL2 = target: T7, CDKL2 (Homo sapiens, UniProt Q92772)
T7 construct: host or cells: T7 phage in E. coli (BL21-derived)
Source text: as §1, §2, §3

PKN2 = target: T8, PKN2 (Homo sapiens, UniProt Q16513)
T8 construct: purchased Ambit Biosciences Corp (KinomeScan); host or cells: E. coli host derived from BL21, infected with T7 phage
Source text: as §1, §2, §3

FES = target: T9, FES (Homo sapiens, UniProt P07332)
T9 construct: host or cells: E. coli host derived from BL21, infected with T7 phage
Source text: as §1, §2, §3

FLT3 (D835H) = target: T10, FLT3 (D835H) (Homo sapiens, UniProt P36888, D835H)
T10 construct: host or cells: E. coli host derived from BL21, infected with T7 phage
Source text: as §1, §2, §3

PAK1 = target: T11, PAK1 (Homo sapiens, UniProt Q13153)
T11 construct: host or cells: E. coli host derived from the BL21 strain, infected with T7 phage
Source text: as §1, §2, §3

TEC = target: T12, TEC (Homo sapiens, UniProt P42680)
T12 construct: host or cells: E. coli host derived from the BL21 strain, T7 phage lysate
Source text: as §1, §2, §3

AAK1 = target: T13, AAK1 (Homo sapiens, UniProt Q2M2I8)
T13 construct: host or cells: E. coli host derived from BL21 (T7 phage lysate)
Source text: as §1, §2, §3

MRCKB = target: T14, MRCKB (Homo sapiens, UniProt Q9Y5S2)
T14 construct: host or cells: T7 phage in E. coli host derived from BL21
Source text: as §1, §2, §3

RIPK4 = target: T15, RIPK4 (Homo sapiens, UniProt P57078)
T15 construct: host or cells: E. coli host derived from BL21, T7 phage lysate
Source text: as §1, §2, §3

ADCK3 = target: T16, ADCK3 (Homo sapiens, UniProt Q8NI60)
T16 construct: host or cells: E. coli host derived from BL21 (T7 phage lysate)
Source text: as §1, §2, §3

SRMS = target: T17, SRMS (Homo sapiens, UniProt Q9H3Y6)
T17 construct: host or cells: E. coli host derived from the BL21 strain, T7 phage lysate
Source text: as §1, §2, §3

MEK1 = target: T18, MEK1 (Homo sapiens, UniProt Q02750)
T18 construct: host or cells: E. coli derived from BL21, infected with T7 phage
Source text: as §1, §2, §3

MST4 = target: T19, MST4 (Homo sapiens, UniProt Q9P289)
T19 construct: host or cells: T7 phage in E. coli host derived from BL21
Source text: as §1, §2, §3

EGFR = target: T20, EGFR (Homo sapiens, UniProt P00533)
T20 construct: purchased Ambit Biosciences Corp (KinomeScan); host or cells: T7 phage in E. coli host derived from BL21
Source text: as §1, §2, §3

RET (V804L) = target: T21, RET (V804L) (Homo sapiens, UniProt P07949, V804L)
T21 construct: host or cells: E. coli host derived from BL21, T7 phage lysate
Source text: as §1, §2, §3

LIMK1 = target: T22, LIMK1 (Homo sapiens, UniProt P53667)
T22 construct: host or cells: T7 phage in E. coli host derived from BL21
Source text: as §1, §2, §3

TGFBR2 = target: T23, TGFBR2 (Homo sapiens, UniProt P37173)
T23 construct: host or cells: E. coli host derived from the BL21 strain, T7 phage lysate
Source text: as §1, §2, §3

T7 sequence (Q92772 whole entry): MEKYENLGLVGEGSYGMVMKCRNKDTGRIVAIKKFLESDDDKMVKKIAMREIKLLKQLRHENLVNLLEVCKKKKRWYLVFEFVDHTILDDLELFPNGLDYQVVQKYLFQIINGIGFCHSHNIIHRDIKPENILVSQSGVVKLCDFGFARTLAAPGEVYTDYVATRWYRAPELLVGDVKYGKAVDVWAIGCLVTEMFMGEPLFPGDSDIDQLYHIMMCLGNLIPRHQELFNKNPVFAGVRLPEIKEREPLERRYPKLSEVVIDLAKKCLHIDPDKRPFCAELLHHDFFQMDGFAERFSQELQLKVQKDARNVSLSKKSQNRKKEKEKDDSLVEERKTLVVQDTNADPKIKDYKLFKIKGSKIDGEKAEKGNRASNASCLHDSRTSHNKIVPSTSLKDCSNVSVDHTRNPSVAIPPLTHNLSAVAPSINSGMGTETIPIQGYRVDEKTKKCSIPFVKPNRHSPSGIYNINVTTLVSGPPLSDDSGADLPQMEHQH
T12 sequence (P42680 whole entry): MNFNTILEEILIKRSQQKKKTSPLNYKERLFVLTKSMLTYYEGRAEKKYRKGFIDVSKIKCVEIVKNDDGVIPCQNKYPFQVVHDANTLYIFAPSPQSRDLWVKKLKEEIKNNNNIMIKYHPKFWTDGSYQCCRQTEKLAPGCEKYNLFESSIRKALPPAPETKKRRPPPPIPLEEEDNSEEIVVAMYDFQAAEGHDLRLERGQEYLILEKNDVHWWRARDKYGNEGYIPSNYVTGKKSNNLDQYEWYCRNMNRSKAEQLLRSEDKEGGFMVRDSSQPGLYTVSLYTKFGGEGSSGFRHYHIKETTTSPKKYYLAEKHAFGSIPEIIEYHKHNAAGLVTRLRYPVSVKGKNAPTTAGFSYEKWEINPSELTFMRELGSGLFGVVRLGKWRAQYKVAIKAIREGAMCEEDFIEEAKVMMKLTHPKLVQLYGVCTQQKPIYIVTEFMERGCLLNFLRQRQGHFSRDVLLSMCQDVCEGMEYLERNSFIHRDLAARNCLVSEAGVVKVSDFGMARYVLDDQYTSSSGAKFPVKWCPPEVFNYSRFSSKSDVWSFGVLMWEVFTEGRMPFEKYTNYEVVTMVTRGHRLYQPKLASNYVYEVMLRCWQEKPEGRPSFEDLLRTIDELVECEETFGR
T13 sequence (Q2M2I8 whole entry): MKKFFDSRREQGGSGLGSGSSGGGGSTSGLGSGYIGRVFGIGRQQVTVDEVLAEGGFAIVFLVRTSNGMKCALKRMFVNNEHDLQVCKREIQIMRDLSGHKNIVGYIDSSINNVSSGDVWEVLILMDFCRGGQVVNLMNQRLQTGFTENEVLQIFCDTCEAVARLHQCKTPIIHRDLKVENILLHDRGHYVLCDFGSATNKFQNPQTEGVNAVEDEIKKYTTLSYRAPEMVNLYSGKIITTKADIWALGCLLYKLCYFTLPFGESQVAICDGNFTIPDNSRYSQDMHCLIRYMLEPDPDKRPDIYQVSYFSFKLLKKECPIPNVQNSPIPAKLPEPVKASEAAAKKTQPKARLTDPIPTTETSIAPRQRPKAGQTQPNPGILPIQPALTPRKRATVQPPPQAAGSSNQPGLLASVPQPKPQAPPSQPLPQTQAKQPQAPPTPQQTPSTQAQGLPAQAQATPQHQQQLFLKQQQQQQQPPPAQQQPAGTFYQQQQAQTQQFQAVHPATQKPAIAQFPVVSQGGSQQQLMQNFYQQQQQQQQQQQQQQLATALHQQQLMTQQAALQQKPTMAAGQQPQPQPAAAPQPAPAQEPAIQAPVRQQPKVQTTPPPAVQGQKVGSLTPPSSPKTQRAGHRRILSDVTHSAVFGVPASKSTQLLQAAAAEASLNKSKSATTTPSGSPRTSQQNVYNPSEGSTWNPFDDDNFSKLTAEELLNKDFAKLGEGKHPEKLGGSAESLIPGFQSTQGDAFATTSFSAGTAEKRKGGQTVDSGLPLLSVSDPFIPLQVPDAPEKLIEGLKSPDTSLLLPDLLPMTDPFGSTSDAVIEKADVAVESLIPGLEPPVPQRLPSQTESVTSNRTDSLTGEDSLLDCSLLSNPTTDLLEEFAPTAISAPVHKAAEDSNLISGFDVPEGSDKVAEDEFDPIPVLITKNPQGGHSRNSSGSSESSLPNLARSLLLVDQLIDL
T6 sequence (Q9Y6R4 whole entry): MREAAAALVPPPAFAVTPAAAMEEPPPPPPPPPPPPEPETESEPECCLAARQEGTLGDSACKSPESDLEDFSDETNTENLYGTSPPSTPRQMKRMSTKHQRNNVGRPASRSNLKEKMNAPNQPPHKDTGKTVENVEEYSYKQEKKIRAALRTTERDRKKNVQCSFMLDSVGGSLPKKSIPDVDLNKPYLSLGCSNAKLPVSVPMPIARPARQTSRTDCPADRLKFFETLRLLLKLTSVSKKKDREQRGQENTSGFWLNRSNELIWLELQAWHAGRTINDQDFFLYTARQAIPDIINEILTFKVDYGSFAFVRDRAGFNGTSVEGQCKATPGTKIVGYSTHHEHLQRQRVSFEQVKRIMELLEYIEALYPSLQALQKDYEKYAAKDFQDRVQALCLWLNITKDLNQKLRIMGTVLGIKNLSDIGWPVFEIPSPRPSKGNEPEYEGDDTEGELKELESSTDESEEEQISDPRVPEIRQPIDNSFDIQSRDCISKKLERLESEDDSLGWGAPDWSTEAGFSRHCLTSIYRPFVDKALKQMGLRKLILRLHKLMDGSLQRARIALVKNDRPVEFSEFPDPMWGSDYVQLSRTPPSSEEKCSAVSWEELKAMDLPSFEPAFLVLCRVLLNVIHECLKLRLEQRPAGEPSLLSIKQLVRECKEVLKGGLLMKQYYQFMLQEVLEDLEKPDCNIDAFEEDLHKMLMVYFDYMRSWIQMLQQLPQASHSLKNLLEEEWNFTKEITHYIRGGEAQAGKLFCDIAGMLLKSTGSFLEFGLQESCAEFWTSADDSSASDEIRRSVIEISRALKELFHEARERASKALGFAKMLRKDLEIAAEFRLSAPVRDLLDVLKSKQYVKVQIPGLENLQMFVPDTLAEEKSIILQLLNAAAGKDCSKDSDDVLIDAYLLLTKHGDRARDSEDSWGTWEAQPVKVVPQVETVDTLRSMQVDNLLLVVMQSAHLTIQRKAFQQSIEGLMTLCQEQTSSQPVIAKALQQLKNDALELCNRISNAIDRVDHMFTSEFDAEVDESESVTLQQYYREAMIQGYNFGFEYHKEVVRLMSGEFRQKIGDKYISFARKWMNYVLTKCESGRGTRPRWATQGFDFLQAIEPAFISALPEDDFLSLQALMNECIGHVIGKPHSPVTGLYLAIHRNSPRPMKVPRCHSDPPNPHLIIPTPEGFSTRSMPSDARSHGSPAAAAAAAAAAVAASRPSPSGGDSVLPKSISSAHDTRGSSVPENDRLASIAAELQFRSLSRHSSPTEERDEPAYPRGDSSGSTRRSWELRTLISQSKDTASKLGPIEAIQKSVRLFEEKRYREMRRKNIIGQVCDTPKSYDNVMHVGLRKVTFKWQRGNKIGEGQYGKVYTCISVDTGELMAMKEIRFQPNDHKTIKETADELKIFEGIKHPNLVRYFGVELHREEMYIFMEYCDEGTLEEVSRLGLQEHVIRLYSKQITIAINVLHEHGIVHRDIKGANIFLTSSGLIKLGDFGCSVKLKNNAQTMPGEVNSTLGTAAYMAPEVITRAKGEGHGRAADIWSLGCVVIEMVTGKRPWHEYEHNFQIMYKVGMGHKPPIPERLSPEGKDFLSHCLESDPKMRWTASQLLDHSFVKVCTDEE
T22 sequence (P53667 whole entry): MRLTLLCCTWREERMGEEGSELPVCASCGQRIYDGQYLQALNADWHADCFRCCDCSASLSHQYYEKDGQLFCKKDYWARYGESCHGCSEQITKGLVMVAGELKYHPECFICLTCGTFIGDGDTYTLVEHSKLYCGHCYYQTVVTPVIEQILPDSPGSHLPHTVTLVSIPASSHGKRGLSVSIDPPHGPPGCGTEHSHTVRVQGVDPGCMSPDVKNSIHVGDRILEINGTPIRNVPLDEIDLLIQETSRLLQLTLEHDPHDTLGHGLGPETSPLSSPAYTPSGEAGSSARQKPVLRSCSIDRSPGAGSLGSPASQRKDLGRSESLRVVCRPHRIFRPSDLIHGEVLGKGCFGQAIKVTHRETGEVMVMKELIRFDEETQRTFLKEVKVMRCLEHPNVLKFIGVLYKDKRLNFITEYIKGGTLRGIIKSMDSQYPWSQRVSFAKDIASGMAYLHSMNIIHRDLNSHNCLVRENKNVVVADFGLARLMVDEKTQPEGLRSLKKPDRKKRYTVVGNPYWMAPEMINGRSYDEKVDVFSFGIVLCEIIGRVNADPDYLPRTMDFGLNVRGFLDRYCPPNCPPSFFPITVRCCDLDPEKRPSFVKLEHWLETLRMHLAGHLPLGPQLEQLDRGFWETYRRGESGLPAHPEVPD
T3 sequence (Q02156 whole entry): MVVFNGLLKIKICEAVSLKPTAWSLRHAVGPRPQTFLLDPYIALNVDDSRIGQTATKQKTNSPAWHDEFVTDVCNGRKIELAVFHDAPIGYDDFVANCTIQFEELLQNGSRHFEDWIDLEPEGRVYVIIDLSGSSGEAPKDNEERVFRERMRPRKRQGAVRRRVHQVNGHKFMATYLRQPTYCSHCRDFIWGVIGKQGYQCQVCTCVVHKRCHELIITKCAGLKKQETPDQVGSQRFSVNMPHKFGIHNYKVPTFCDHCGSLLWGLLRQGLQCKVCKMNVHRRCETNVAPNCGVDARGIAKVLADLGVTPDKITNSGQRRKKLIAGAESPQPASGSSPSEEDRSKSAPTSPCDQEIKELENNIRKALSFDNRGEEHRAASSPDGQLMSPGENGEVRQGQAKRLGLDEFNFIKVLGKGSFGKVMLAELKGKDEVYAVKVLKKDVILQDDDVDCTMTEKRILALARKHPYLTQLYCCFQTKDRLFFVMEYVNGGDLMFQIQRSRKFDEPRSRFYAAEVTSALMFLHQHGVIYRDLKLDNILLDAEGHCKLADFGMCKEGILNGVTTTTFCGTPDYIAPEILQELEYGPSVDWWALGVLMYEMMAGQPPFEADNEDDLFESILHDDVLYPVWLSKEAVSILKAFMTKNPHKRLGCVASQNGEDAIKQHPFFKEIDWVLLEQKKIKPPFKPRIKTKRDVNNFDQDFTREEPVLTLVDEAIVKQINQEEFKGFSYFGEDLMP

SMILES: C#Cc1cccc(Nc2ncnc3cc(OC)c(OCCCN4CCOCC4)cc23)c1 [NRC-2694, N-(3-ethylnylphenyl)-7-methoxy-6-[3-(4-morpholinyl)propoxy]-4-quinazolinamine]
- % Ctrl @ 10000 nM (PIK3CG): 78 % Ctrl
- % Ctrl @ 10000 nM (EPHA6): 25 % Ctrl
- % Ctrl @ 10000 nM (PRKCE): 65 % Ctrl
- % Ctrl @ 10000 nM (NEK2): 63 % Ctrl
- % Ctrl @ 10000 nM (BMPR2): 100 % Ctrl
- % Ctrl @ 10000 nM (MAP3K4): 53 % Ctrl
- % Ctrl @ 10000 nM (CDKL2): 67 % Ctrl
- % Ctrl @ 10000 nM (PKN2): 31 % Ctrl
- % Ctrl @ 10000 nM (FES): 72 % Ctrl
- % Ctrl @ 10000 nM (FLT3 (D835H)): 8.1 % Ctrl
- % Ctrl @ 10000 nM (PAK1): 74 % Ctrl
- % Ctrl @ 10000 nM (TEC): 90 % Ctrl
- % Ctrl @ 10000 nM (AAK1): 38 % Ctrl
- % Ctrl @ 10000 nM (MRCKB): 71 % Ctrl
- % Ctrl @ 10000 nM (RIPK4): 96 % Ctrl
- % Ctrl @ 10000 nM (ADCK3): 14 % Ctrl
- % Ctrl @ 10000 nM (SRMS): 100 % Ctrl
- % Ctrl @ 10000 nM (MEK1): 50 % Ctrl
- % Ctrl @ 10000 nM (MST4): 29 % Ctrl
- % Ctrl @ 10000 nM (EGFR): 0 % Ctrl
- % Ctrl @ 10000 nM (RET (V804L)): 81 % Ctrl
- % Ctrl @ 10000 nM (LIMK1): 62 % Ctrl
- % Ctrl @ 10000 nM (TGFBR2): 86 % Ctrl
